Marks after values point to notes of the source that are not given here.
Settings: pH 2.3

SMILES | Log P
CCOC(=O)C(C#N)=C(NC(C)CSC)c1cccnc1OC (stereo not drawn) [Compound 687] | 2.96
CCOC(=O)C(C#N)=C(NC1CC1)c1cccnc1Cl [Compound 764] | 2.5

Same assay, conditions: pH 2.7

SMILES | Log P
CCOC(=O)C(C#N)=C(NC(C(=O)OC)C(C)C)c1cn(C)nc1C(F)F (stereo not drawn) [Compound 675] | 2.84^[a]
CCOC(=O)C(C#N)=C(NC(C)C(=O)OC)c1sc(C)nc1C(F)(F)F (stereo not drawn) [Compound 680] | 2.94^[a]
CCOC(=O)C(C#N)=C(NC(C(=O)OC)C(C)C)c1sc(C)nc1C(F)(F)F (stereo not drawn) [Compound 682] | 3.64^[a]
CCOC(=O)C(C#N)=C(NC(C)C(=O)Nc1ccc2ccccc2c1)c1cn(C)nc1C(F)F (stereo not drawn) [Compound 683] | 3.31^[a]
CCOC(=O)C(C#N)=C(NC(C)COc1c(C)cccc1C)c1cn(C)nc1C(F)F (stereo not drawn) [Compound 684] | 3.96^[a]
CCOC(=O)C(C#N)=C(NC(C)COC)c1cn(C)nc1C(F)F (stereo not drawn) [Compound 685] | 2.41^[a]
CCOC(=O)C(C#N)=C(NC(C)C(=O)OCC)c1cn(C)nc1C(F)F (stereo not drawn) [Compound 686] | 2.62^[a]
C=CC(COCc1ccccc1)NC(=C(C#N)C(=O)OCC)c1sccc1C(F)(F)F (stereo not drawn) [Compound 688] | 4.36^[a]
C=CC(COCc1ccccc1)NC(=C(C#N)C(=O)OCC)c1sccc1Br (stereo not drawn) [Compound 689] | 4.31^[a]
C=CC(COCc1ccccc1)NC(=C(C#N)C(=O)OC)c1sc(C)nc1C(F)(F)F (stereo not drawn) [Compound 690] | 3.89^[a]
C=CC(COCc1ccccc1)NC(=C(C#N)C(=O)OCC)c1cn(C)nc1C(F)F (stereo not drawn) [Compound 691] | 3.51^[a]
C=CC(COCc1ccccc1)NC(=C(C#N)C(=O)OCC)c1sc(C)nc1C(F)(F)F (stereo not drawn) [Compound 692] | 4.21^[a]
CCOC(=O)C(C#N)=C(NC(C)(C)C(=O)OC)c1sccc1Br [Compound 693] | 3.23^[a]
CCOC(=O)C(C#N)=C(NC(C)(C)C(=O)OC)c1sccc1C(F)(F)F [Compound 694] | 3.37^[a]
COC(=O)C(C#N)=C(NC(C)(C)C(=O)OC)c1sc(C)nc1C(F)(F)F [Compound 695] | 2.9^[a]
CCOC(=O)C(C#N)=C(NC(C)(C)C(=O)OC)c1cn(C)nc1C(F)F [Compound 696] | 2.51^[a]
CCOC(=O)C(C#N)=C(NC(C)(C)C(=O)OC)c1sc(C)nc1C(F)(F)F [Compound 697] | 3.23^[a]
CCOC(=O)C(C#N)=C(NC(C)C(N)=O)c1nc(Cl)ccc1Cl (stereo not drawn) [Compound 698] | 1.97^[a]
CCOC(=O)C(C#N)=C(NC(C)C(N)=O)c1ncc(Cl)cc1Cl (stereo not drawn) [Compound 699] | 2.01^[a]
CCOC(=O)C(C#N)=C(NC(C)(C)CSC)c1sccc1C(F)(F)F [Compound 700] | 3.8^[a]
CCOC(=O)C(C#N)=C(NC(C)(C)CSC)c1sccc1Br [Compound 701] | 3.73^[a]

SMILES | Log P
COC(=O)C(C#N)=C(NC(C)(C)CSC)c1sc(C)nc1C(F)(F)F [Compound 702] | 3.27^[a]
CCOC(=O)C(C#N)=C(NC(C)(C)CSC)c1cn(C)nc1C(F)F [Compound 703] | 2.84^[a]
CCOC(=O)C(C#N)=C(NC(C)(C)CSC)c1sc(C)nc1C(F)(F)F [Compound 704] | 3.62^[a]
CCOC(=O)C(C#N)=C(NC(C)C(N)=O)c1cccnc1C(F)(F)F (stereo not drawn) [Compound 705] | 1.91^[a]
CCOC(=O)C(C#N)=C(NC(C)C(=O)NC)c1cccnc1C(F)(F)F (stereo not drawn) [Compound 706] | 2.05^[a]
CCOC(=O)C(C#N)=C(NC(C)CN)c1sccc1Br (stereo not drawn) [Compound 707] | 1.1^[a]
CCOC(=O)C(C#N)=C(NC(C)C(N)=O)c1nc(SC)ncc1Br (stereo not drawn) [Compound 709] | 2.13^[a]
CCOC(=O)C(C#N)=C(NC(C(=O)OC)C(C)C)c1sc(Cl)nc1Cl (stereo not drawn) [Compound 710] | 3.82^[a]
CCOC(=O)C(C#N)=C(NC(C(=O)OC)C(C)C)c1cn(C)nc1OC (stereo not drawn) [Compound 711] | 2.71^[a]
CCOC(=O)C(C#N)=C(NC(C(=O)OC)C(C)C)c1cc(Cl)sc1Cl (stereo not drawn) [Compound 712] | 4.14^[a]
CCOC(=O)C(C#N)=C(NC(C(=O)OC)C(C)C)c1cn(C)nc1C(F)(F)F (stereo not drawn) [Compound 713] | 3.09^[a]
CCOC(=O)C(C#N)=C(NC(C)COC)c1ccsc1Br (stereo not drawn) [Compound 714] | 3.21^[a]
CCOC(=O)C(C#N)=C(NC(C(=O)OC)C(C)C)c1ccsc1Br (stereo not drawn) [Compound 715] | 3.48^[a]
CCOC(=O)C(C#N)=C(NC(C(=O)OC)C(C)C)c1ccsc1Br (stereo not drawn) [Compound 716] | 3.71^[a]
CCOC(=O)C(C#N)=C(NC(C)C(=O)Nc1ccc2ccccc2c1)c1ccsc1Br (stereo not drawn) [Compound 717] | 3.94^[a]
CCOC(=O)C(C#N)=C(NC(C)COc1c(C)cccc1C)c1ccsc1Br (stereo not drawn) [Compound 718] | 4.86^[a]
C=Cc1nn(C)cc1C(NC(C(=O)OC)C(C)C)=C(C#N)C(=O)OCC (stereo not drawn) [Compound 719] | 2.94^[a]
CCOC(=O)C(C#N)=C(NC(C)C(=O)NC)c1cc(Cl)ncc1Cl (stereo not drawn) [Compound 720] | 2.19^[a]
CCOC(=O)C(C#N)=C(NC(C)C(N)=O)c1cc(Cl)ncc1Cl (stereo not drawn) [Compound 721] | 2.64^[a]
CCOC(=O)C(C#N)=C(NC(C)C(N)=O)c1ccncc1Cl (stereo not drawn) [Compound 722] | 1.65^[a]
CCOC(=O)C(C#N)=C(NC(C)C(=O)NC)c1ccncc1Cl (stereo not drawn) [Compound 723] | 1.78^[a]

SMILES | Log P
CCOC(=O)C(C#N)=C(NC(C)C(=O)NC)c1cccnc1C(F)F (stereo not drawn) [Compound 724] | 1.62^[a]
CCOC(=O)C(C#N)=C(NC(C(=O)OC)C(C)C)c1cn(C)cc1C(F)(F)F (stereo not drawn) [Compound 726] | 3.43^[a]
CCOC(=O)C(C#N)=C(NC(C)C(N)=O)c1cnccc1C(F)(F)F (stereo not drawn) [Compound 727] | 1.8^[a]
CCNC(=O)C(C)NC(=C(C#N)C(=O)OCC)c1cccnc1Cl (stereo not drawn) [Compound 728] | 2.1^[a]
CCOC(=O)C(C#N)=C(NC(C)C(N)=O)c1ccnc(Cl)c1Cl (stereo not drawn) [Compound 729] | 1.88^[a]
CCOC(=O)C(C#N)=C(NC(C)C(=O)NC)c1ccnc(Cl)c1Cl (stereo not drawn) [Compound 730] | 2.08^[a]
CCOC(=O)C(C#N)=C(NC(C)COCc1ccc(C(F)(F)F)cc1)c1cccnc1Cl (stereo not drawn) [Compound 731] | 4.2^[a]
CCOC(=O)C(C#N)=C(NC(C(N)=O)C(C)C)c1cccnc1Cl (stereo not drawn) [Compound 732] | 2.07^[a]
CCOC(=O)C(C#N)=C(NC(C)C(N)=O)c1ccncc1F (stereo not drawn) [Compound 733] | 1.37^[a]
CCOC(=O)C(C#N)=C(NC(C)COC)c1sccc1Br (stereo not drawn) [Compound 734] | 3.21^[a]
CCOC(=O)C(C#N)=C(NC(C)COc1ccc(C)cc1)c1cn(C)nc1C(F)F (stereo not drawn) [Compound 735] | 3.71^[a]
CCOC(=O)C(C#N)=C(NC(C)COc1ccc(F)cc1)c1cn(C)nc1C(F)F (stereo not drawn) [Compound 736] | 3.42^[a]
CCOC(=O)C(C#N)=C(NC(C)C(C)Sc1ccccc1)c1cn(C)nc1C(F)F (stereo not drawn) [Compound 737] | 3.87^[a]
CCOC(=O)C(C#N)=C(NC(C)COc1ccccc1)c1cn(C)nc1C(F)F (stereo not drawn) [Compound 738] | 3.37^[a]
CCOC(=O)C(C#N)=C(NC(C)COCc1ccccc1)c1cn(C)nc1C(F)F (stereo not drawn) [Compound 739] | 3.48^[a]
CCOC(=O)C(C#N)=C(NC(C)COCc1ccccc1F)c1cn(C)nc1C(F)F (stereo not drawn) [Compound 740] | 3.48^[a]
CCOC(=O)C(C#N)=C(NC(C)COc1ccccc1Cl)c1cn(C)nc1C(F)F (stereo not drawn) [Compound 741] | 3.6^[a]
CCOC(=O)C(C#N)=C(NC(C)COc1cccc(OC)c1)c1cn(C)nc1C(F)F (stereo not drawn) [Compound 742] | 3.35^[a]
COC(=O)C(C#N)=C(NC(C)(C)CF)c1cccnc1Cl [Compound 744] | 2.31^[a]
CCOC(=O)C(C#N)=C(NC(C)CF)c1cc(C)oc1C (stereo not drawn) [Compound 745] | 2.8^[a]
COC(=O)C(C#N)=C(NC(C)CF)c1cccnc1Cl (stereo not drawn) [Compound 746] | 2.05^[a]

SMILES | Log P
CCOC(=O)C(C#N)=C(NC(C)CF)c1cc(Cl)sc1Cl (stereo not drawn) [Compound 747] | 3.49^[a]
CCOC(=O)C(C#N)=C(NC(C)CF)c1cn(C)nc1OC (stereo not drawn) [Compound 748] | 2.23^[a]
C=Cc1nn(C)cc1C(NC(C)CF)=C(C#N)C(=O)OCC (stereo not drawn) [Compound 749] | 2.25^[a]
CCOC(=O)C(C#N)=C(NC(C)CF)c1ccncc1Cl (stereo not drawn) [Compound 750] | 2.42^[a]
CCOC(=O)C(C#N)=C(NC(C)CF)c1cn(C)nc1C(F)(F)F (stereo not drawn) [Compound 751] | 2.72^[a]
CCOC(=O)C(C#N)=C(NC(C)CF)c1cn(C)cc1C(F)(F)F (stereo not drawn) [Compound 752] | 2.95^[a]
CCOC(=O)C(C#N)=C(NC(C)(C)C(C)(C)C)c1cn(C)nc1C(F)F [Compound 753] | 3.46^[a]
COC(=O)C(C#N)=C(NC(C)(C)C(C)(C)C)c1sc(C)nc1C(F)(F)F [Compound 754] | 4.02^[a]
CCOC(=O)C(C#N)=C(NC(C)(C)C(C)(C)C)c1sccc1Br [Compound 755] | 4.67^[a]
CCC(CC)NC(=C(C#N)C(=O)OC)c1cccnc1Cl [Compound 756] | 2.76^[a]
COC(=O)C(C#N)=C(NC(C)CC(F)(F)F)c1cccnc1Cl (stereo not drawn) [Compound 757] | 2.34^[a]
COC(=O)C(C#N)=C(NC(C)(C)CC(F)(F)F)c1cccnc1Cl [Compound 758] | 2.34^[a]
COC(=O)C(C#N)=C(NC1CC1F)c1cccnc1Cl (stereo not drawn) [Compound 759] | 1.87^[a]
CCOC(=O)C(C#N)=C(NC(C)C1CC=CCC1)c1cccnc1Cl (stereo not drawn) [Compound 760] | 3.9^[a]
CCOC(=O)C(C#N)=C(NC1CCCCC1)c1cccnc1Cl [Compound 761] | 3.55^[a]
CCC(NC(=C(C#N)C(=O)OC)c1cccnc1Cl)C1CCCCC1 (stereo not drawn) [Compound 762] | 4.07^[a]
COC(=O)C(C#N)=C(NC1CCCC1)c1cccnc1Cl [Compound 763] | 2.61^[a]
COC(=O)C(C#N)=C(NC(C1CC1)C1CC1)c1cccnc1Cl [Compound 765] | 2.85^[a]

Same assay, conditions: pH 7.5

SMILES | Log P
CCOC(=O)C(C#N)=C(NC(C)CSC)c1cccnc1OC (stereo not drawn) [Compound 687] | 2.95
CCOC(=O)C(C#N)=C(NC(C)C(N)=S)c1cccnc1Cl (stereo not drawn) [Compound 708] | 1.87
CCOC(=O)C(C#N)=C(NC(C)CCl)c1cccnc1Cl (stereo not drawn) [Compound 743] | 2.7
CCOC(=O)C(C#N)=C(NC1CC1)c1cccnc1Cl [Compound 764] | 2.36

Reference: patent US8476197B2, “Aminopropenoates as fungicides” (priority 2009, dated 2013)
